Reference: patent publication US6451820B1, “Substituted 1-(4-aminophenly)triazoles and their use as anti-inflammatory agents” (Boehringer Ingelheim Pharmaceuticals, Inc., priority 2000, dated 2002)
pIC50: −log10 of the molar value. Like-named read-outs stand apart in the source and are kept apart here.

Test system: IL-2 promoter/enhancer
Assay: IL-2 promoter assay (luciferase reporter in J.1F/C6 Jurkat cells)
Type: cell-based
Details: Homo sapiens
Source text: The IL-2 promoter assay measures transcriptional activation of a luciferase reporter gene which has been placed under control of the IL-2 promoter/enhancer. All the known regulatory features of the IL-2 gene are contained within a ˜300 bp sequence immediately upstream of the open reading frame. The region −328 to +35 relative to the transcription start site of the IL-2 gene is obtained by […] of human genomic DNA and is subcloned into the promoterless luciferase reporter vector pGL2-Basic (Promega). The resulting construct, pIL2P-luc, and a vector containing a neomycin resistance gene, pcDNA/Neo (Invitrogen), are linearized and stably transfected into Jurkat cells (a human T cell line) by electroporation.
For screening compounds, the cells are pelleted by centrifugation, washed once with PBS, resuspended in RPMI (phenol red-free) containing 5% FBS, and dispensed into 96-well, white microtiter plates (Packard) at 50,000 cells/well. The cells are pre-incubated with compounds (1 μg/ml) for 15 min prior to addition of ionomycin (1 μg/ml) and PMA (10 ng/ml) in a final volume of 100 μl. Following a 5 hr incubation at 37° C. in a humidified incubator, 100 μl of Luc-Lite lysis buffer/luciferase assay buffer (Promega) is added and luminescence measured using a Packard TopCount scintillation counter/luminometer.

[1] = J.1F/C6 Jurkat cells stimulated with ionomycin and PMA, luciferase reporter, read-out: IC50

Row | pIC50 [1] | pIC50 (J.1F/C6 Jurkat cells treated with ionomycin and PMA, cell line validation, read-out: IC50, inhibition of luciferase activity) | Compound
1 | > 5.00 |  | CSc1nc(-c2ccncc2)nn1-c1ccc(NCc2sccc2C)cc1 [Example 2, (3-Methylthien-2-ylmethyl)-[4-(5-methylthio-3-pyridin-4-yl-1H-1,2,4-triazol-1-yl)phenyl]amine]
2 |  | 9.52 | C=CC[C@@H]1/C=C(\C)C[C@H](C)C[C@H](OC)[C@H]2O[C@@](O)(C(=O)C(=O)N3CCCC[C@H]3C(=O)O[C@H](/C(C)=C/[C@@H]3CC[C@@H](O)[C@H](OC)C3)[C@H](C)[C@@H](O)CC1=O)[C@H](C)C[C@@H]2OC [FK506, reference compound]
3 | > 5.00 |  | CSc1nc(-c2ccncc2)nn1-c1ccc(NC(=O)c2cccnc2)cc1 [Example 1]
